Measured values published in PMC9532951, “Identification and characterization of a novel SNAT2 (SLC38A2) inhibitor reveals synergy with glucose transport inhibition in cancer cells” (Frontiers in Pharmacology, 2022).
“And” between values parts separate entries of the source, which are not always exact repeats. Equal entries are not always repeated. Where two headings read alike, the source gives them in different places.

Key:
HCC1806 cells = test: Assay of glycolytic activity (extracellular lactate); assay type: cell-based, human; conditions: 57E 20 μM
Procedure: Glycolytic activity was measured by detecting extracellular lactate levels over a 48-h time course. HCC1806 and HPAFII cells were seeded on a 24-well plate at approximately 500,000 and 700,000 cells/well, respectively, and incubated in growth medium overnight. The following day, the growth medium was aspirated and each well was washed once with growth medium and 1.3 ml of the treatment solution was added to begin the time-course. In addition to sampling the medium at the start of the experiment, 50 μL was collected from each well at the following time points: 9, 24 and 48 h. Samples were stored at −20°C until further use. Lactate was detected by an enzymatic assay, which consisted of combining in microcentrifuge tubes: 5 μl of sample, 45 μl of water; 25 μl of 40 mM NAD^+; 421 μl of buffer (1M glycine, 600 mM hydrazine sulfate, 5.6 mM EDTA; adjusted to pH 9.5 with sodium hydroxide); and 4 μL of L-lactate dehydrogenase solved at 300U/mL (3.33 mg/ml). The tubes were briefly vortexed and incubated for 15 min before transferring 200 μL of the mixture to a 96-well plate. The calibration curve spanned final concentrations from 5 to 500 μM. Absorbance was measured at 340 nm to detect NADH. Lactate production was normalised to total cellular protein per well as measured by the Bradford assay.

SKOV3 cells = test: [14C]alanine uptake in non-depleted SKOV3 cells; assay type: cell-based, human; conditions: amino acid replete SKOV3 cells
Procedure: (§1) Functional characterisation of plasma membrane transporters in human cancer cells was determined at 37°C using an array of radiolabelled amino acid substrates. Modified Hanks HEPES-buffered salts solution (mHBSS; 137 mM NaCl; 5.4 mM KCl; 2.7 mM K2HPO4; 1 mM CaCl2; 0.5 mM MgCl2; 0.44 mM KH2PO4; 0.4 mM MgSO4; 5 mM D-glucose; 5 mM HEPES; pH 7.4) was used to wash and incubate cells where sodium dependent transport was measured, while N-methyl-D-glucamine (NMDG) and potassium salts substituted sodium in NMDG mHBSS to measure sodium independent uptake. For the assay, cells were seeded in 35 mm dishes and, once confluent, were washed thrice with warm mHBSS solution and incubated with mHBSS containing an 100 µM amino acid at a final specific activity of ≥2000 cpm/nmol (U-[^14C]amino acids were from PerkinElmer). After 6 min, cells were washed thrice with ice-cold mHBSS, lysed with 500 µl of 0.1 M HCl, detached with a cell scraper and triturated. A 400 µl aliquot was used for scintillation counting, while the remainder was saved for protein mass quantification by Bradford assay. Transport rates were normalised to the protein content of the culture dish.

SNAT2 = target: T1, SNAT2 (Homo sapiens, UniProt Q96QD8); test: Radiolabelled proline uptake in amino acid depleted SKOV3 cells; assay type: cell-based; parameters: SKOV3 cells pre-incubated in starvation medium for 24 h to induce SNAT2 expression; endogenous in cells; host or cells: SKOV3 ovarian cancer cells, amino acid depleted for 15 or 24 h
T1 sequence (Q96QD8 1-506): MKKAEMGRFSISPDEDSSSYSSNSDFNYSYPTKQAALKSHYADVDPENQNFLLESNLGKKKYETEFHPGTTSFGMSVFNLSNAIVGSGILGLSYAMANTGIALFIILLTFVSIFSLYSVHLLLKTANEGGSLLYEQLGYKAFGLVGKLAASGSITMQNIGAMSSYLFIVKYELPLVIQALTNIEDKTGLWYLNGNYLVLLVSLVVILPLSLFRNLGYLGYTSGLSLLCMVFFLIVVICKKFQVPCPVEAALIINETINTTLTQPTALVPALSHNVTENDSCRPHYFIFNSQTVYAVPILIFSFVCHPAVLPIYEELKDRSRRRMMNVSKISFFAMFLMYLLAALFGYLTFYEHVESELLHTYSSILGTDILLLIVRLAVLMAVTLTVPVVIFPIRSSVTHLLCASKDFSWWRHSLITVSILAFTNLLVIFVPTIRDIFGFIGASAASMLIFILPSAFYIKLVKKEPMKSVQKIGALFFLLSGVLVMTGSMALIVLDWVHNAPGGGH
Procedure: as §1
IC50 were calculated using equation y=ymax(1−x/x+IC50)

HPAFII cells = test: Growth assay (IncuCyte confluence), HPAFII; assay type: cell-based, human; parameters: key to Growth (Figure 6A) / cell confluence (Figure 6F): % confluence
Procedure: Cells were seeded on 96-well flat bottom plates at approximately 3000 cells/well and incubated in growth medium (DMEM/F12 supplemented with 10% FBS, 2 mM glutamine) for 24 h. The next day, the growth medium was aspirated and exchanged with 300 μL/well of growth medium containing compounds at the indicated concentration. For live cell analysis, plates were placed in the IncuCyte system (Essen Bioscience), which was housed in a cell incubator (37°C, humidified atmosphere composed of 95% air and 5% CO2) and confluence measured at 6-h intervals or at the assay endpoint when untreated control cells reached a confluency >90%. Antibiotics (10 U/mL penicillin and 10 μg/ml streptomycin) were included in the treatment solutions.
Growth curves were generated using the Gompertz function of OriginPro software: y=ae^−e^(−k(x−xc))
Where a is the maximum confluence or upper asymptote, k is the growth rate coefficient, xc is the time point at which 50% confluence is reached (inflection point) and e is Euler’s number. Cell growth data are shown as % confluence.
Synergism between drug combinations was quantified using ZIP synergy scoring as calculated by SynergyFinder ([Yadav et al., 2015]).

- SNAT2 transport rate of proline (SNAT2; Concentration 0.01 uM, betaine resistant transport subtracted): 5.421 nmol / mg protein x 6 min
- SNAT2 transport rate of proline (SNAT2; Concentration 0.03 uM): 5.227 nmol / mg protein x 6 min
- SNAT2 transport rate of proline (SNAT2; Concentration 0.1 uM): 4.344 nmol / mg protein x 6 min
- SNAT2 transport rate of proline (SNAT2; Concentration 0.3 uM): 3.331 nmol / mg protein x 6 min
- SNAT2 transport rate of proline (SNAT2; Concentration 1 uM): 2.267 nmol / mg protein x 6 min
- SNAT2 transport rate of proline (SNAT2; Concentration 3 uM): -0.2231 nmol / mg protein x 6 min
- SNAT2 transport rate of proline (SNAT2; Concentration 10 uM): -0.6681 nmol / mg protein x 6 min
- IC50 (SNAT2; betaine-sensitive fraction of proline uptake, SKOV3 AA- (15h)): 800 ± 400 nM
- IC50 (SNAT2; in two different assays): 800 to 3000 nM
SMILES: Cc1ccc(S(=O)(=O)N(C)c2ccsc2C(=O)NCc2ccccc2C(F)(F)F)cc1 [Compound 57_E, 3-(N-methyl (4-methylphenyl)sulfonamido)-N-(2-trifluoromethylbenzyl)thiophene-2-carboxamide]
- lactate production (HCC1806 cells): increased
- inhibition of [14C]alanine uptake (SKOV3 cells): did not inhibit any transporter in this cell line
- tolerated concentration (HPAFII cells): ≤ 100 µM
- Growth (Figure 6A) (HPAFII cells; concentration 1): 93.8 and 96.25 and 96.4
- Growth (Figure 6A) (HPAFII cells; concentration 3): 93.35 and 98.85 and 97.6
- Growth (Figure 6A) (HPAFII cells; concentration 10): 91.1 and 94.2 and 97.05
- Growth (Figure 6A) (HPAFII cells; concentration 30): 73 and 75.75 and 89.85
- Growth (Figure 6A) (HPAFII cells; concentration 100): 46.05 and 59.8 and 57.25
- tolerated concentration (HPAFII cells; growth medium): up to 30 μM
